# ChEMBL document CHEMBL5463723, “Data for DCP probe BIBO3304” (2023)
# What was measured:
# [1] = target: Angiotensin-converting enzyme (Homo sapiens) (UniProt P12821); test: Activity against ACE(HU_AMTCH400) in the Eurofins Cerep SafetyScreen44 (BI) by Photometry (Cerep_3441); settings: Compound concentration 10.0 uM
# [2] = target: Alpha-1A adrenergic receptor (Homo sapiens) (UniProt P35348); test: Agonist activity in the Eurofins Cerep SafetyScreen44 (BI) against ALPHA1AH_ANTAG by Scintillation counting (Cerep_2338); settings: Compound concentration 10.0 uM
# [3] = target: Beta-1 adrenergic receptor (Homo sapiens) (UniProt P08588); test: beta 1 Eurofins-Cerep binding assay; design: ligand concentration 0.3 nM; settings: Compound concentration 10.0 uM
# [4] = target: Beta-2 adrenergic receptor (Homo sapiens) (UniProt P07550); test: beta 2 Eurofins-Cerep binding assay; settings: Compound concentration 10.0 uM
# [5] = target: Sodium-dependent dopamine transporter (Homo sapiens) (UniProt Q01959); test: dopamine transporter Eurofins-Cerep binding assay; settings: Compound concentration 10.0 uM
# [6] = target: Endothelin-1 receptor (Homo sapiens) (UniProt P25101); test: ETA Eurofins-Cerep binding assay; design: ligand concentration 0.03 nM; settings: Compound concentration 10.0 uM
# [7] = target: Glucocorticoid receptor (Homo sapiens) (UniProt P04150); test: GR Eurofins-Cerep binding assay; settings: Compound concentration 10.0 uM
# [8] = organism: Homo sapiens; test: Agonist activity in the Eurofins Cerep SafetyScreen44 (BI) against N_NEURO_A4B2 by Radioligand Binding (Cerep_3029); format: protein-complex assay; settings: Compound concentration 10.0 uM
# [9] = target: cGMP-inhibited 3',5'-cyclic phosphodiesterase 3A (Homo sapiens) (UniProt Q14432); test: Inhibitor of PDE3A in the Eurofins Cerep SafetyScreen44 (BI) by HTRF-homogeneous time resolved fluoresce (Cerep_4072); settings: Compound concentration 10.0 uM
# [10] = target: Sodium-dependent serotonin transporter (Homo sapiens) (UniProt P31645); test: 5-HT transporter Eurofins-Cerep binding assay; design: ligand concentration 2 nM; settings: Compound concentration 10.0 uM
# [11] = target: Vasopressin V1a receptor (Homo sapiens) (UniProt P37288); test: V1a Eurofins-Cerep binding assay; design: ligand concentration 0.3 nM; settings: Compound concentration 10.0 uM
# [12] = target: Neuropeptide Y receptor type 4 (Rattus norvegicus, UniProt Q63447); test: Radioligand binding assay (rat NPY4R, CHO cells); format: cell-based
# [13] = target: Neuropeptide Y receptor type 5 (Homo sapiens, UniProt Q15761); test: Radioligand binding assay (human NPY5R, HEK293); format: cell-based
# [14] = target: Polyunsaturated fatty acid lipoxygenase ALOX15 (Oryctolagus cuniculus) (UniProt P12530); test: Inhibitor of 15LO in the Eurofins Panlabs screen (BI) by absorption of electromagnetic radiation; settings: Compound concentration 30.0 uM
# [15] = target: Serotonin 1 (5-HT1) receptor (Rattus norvegicus) (UniProt P28564+P30940+P19327+P28565); test: Activity against 5HT1/R in the Eurofins Panlabs screen (BI) by Radioactive Assay; format: protein assay; settings: Compound concentration 10.0 uM
# [16] = target: Alpha-1B adrenergic receptor (Homo sapiens) (UniProt P35368); test: Activity against ALPHA1B/R in the Eurofins Panlabs screen (BI) by Radioactive Assay; settings: Rattus norvegicus; Compound concentration 10.0 uM
# [17] = target: Alpha-2A adrenergic receptor (Oryctolagus cuniculus) (UniProt Q5ZQK3); test: Activity against ALPHA2A/RB in the Eurofins Panlabs screen (BI) by Radioactive Assay; settings: Compound concentration 10.0 uM
# [18] = target: Voltage-dependent N-type calcium channel subunit alpha-1B (Rattus norvegicus) (UniProt Q02294); test: Activity against CA+/N/RA in the Eurofins Panlabs screen (BI) by Radioactive Assay; settings: Compound concentration 10.0 uM
# [19] = target: Carbonic anhydrase 6 (Homo sapiens) (UniProt P23280); test: Inhibitor of CANHYDRASE in the Eurofins Panlabs screen (BI) by absorption of electromagnetic radiation; settings: Compound concentration 10.0 uM
# [20] = target: Calcitonin-gene-related peptide receptor; CALCRL/RAMP1 (Rattus norvegicus) (UniProt Q63118+Q9JJ74); test: Activity against CGRP/R in the Eurofins Panlabs screen (BI) by Radioactive Assay; format: protein-complex assay; settings: Compound concentration 10.0 uM
# [21] = target: D(1A) dopamine receptor (Homo sapiens) (UniProt P21728); test: Activity against D1/HU in the Eurofins Panlabs screen (BI) by Radioactive Assay; settings: Compound concentration 10.0 uM
# [22] = target: G_PROTEIN_RECEP_F1_2 domain-containing protein (Cavia porcellus) (UniProt A0A286XTF2); test: Activity against DELTA/GP in the Eurofins Panlabs screen (BI) by Radioactive Assay; settings: Compound concentration 10.0 uM
# [23] = target: Endothelin receptor type B (Rattus norvegicus) (UniProt P21451); test: Activity against ETB/R in the Eurofins Panlabs screen (BI) by Radioactive Assay; settings: Compound concentration 10.0 uM
# [24] = target: Gamma-aminobutyric acid receptor subunit alpha-1 (Rattus norvegicus) (UniProt P62813); test: Agonist activity in the Eurofins Panlabs screen (BI) against GABAA-AGSI/R by Scintillation counting; settings: Compound concentration 10.0 uM
# [25] = target: 3-hydroxy-3-methylglutaryl-coenzyme A reductase (Rattus norvegicus) (UniProt P51639); test: Inhibitor of HMGCOARED in the Eurofins Panlabs screen (BI) by Radioactive Assay; settings: Compound concentration 30.0 uM
# [26] = target: Interleukin-6 receptor subunit alpha (Homo sapiens) (UniProt P08887); test: Activity against IL-6/H in the Eurofins Panlabs screen (BI) by SPA - blue shifted; settings: Compound concentration 10.0 uM
# [27] = target: Insulin receptor (Rattus norvegicus) (UniProt P15127); test: Activity against INSULIN/R in the Eurofins Panlabs screen (BI) by Radioactive Assay; settings: Compound concentration 10.0 uM
# [28] = target: LTB4 receptor (Cavia porcellus) (UniProt Q9WTK1); test: Activity against LTB4GP in the Eurofins Panlabs screen (BI) by Radioactive Assay; settings: Compound concentration 10.0 uM
# [29] = target: Leukotriene C4 synthase (Cavia porcellus) (UniProt A6XA80); test: Inhibitor of LTC4SYN in the Eurofins Panlabs screen (BI) by Radioactive Assay; settings: Compound concentration […] uM
# [30] = target: Muscarinic acetylcholine receptor (Oryctolagus cuniculus) (UniProt A0A5F9DUN4); test: Activity against M4/RB in the Eurofins Panlabs screen (BI) by Radioactive Assay; settings: Compound concentration 10.0 uM
# [31] = target: Muscarinic acetylcholine receptor (Rattus norvegicus) (UniProt P08482+P08483+P08485+P08911+P10980); test: Activity against MUSCARIN/NS in the Eurofins Panlabs screen (BI) by Radioactive Assay; format: protein assay; settings: Compound concentration 10.0 uM
# [32] = target: Neuronal acetylcholine receptor subunit beta-2 (Rattus norvegicus) (UniProt P12390); test: Activity against NACH/CENT/R in the Eurofins Panlabs screen (BI) by Radioactive Assay; settings: Compound concentration 10.0 uM
# [33] = target: Neprilysin (Homo sapiens) (UniProt P08473); test: Activity against NEUTRALENDOP in the Eurofins Panlabs screen (BI) by absorption of electromagnetic radiation; settings: Compound concentration 10.0 uM
# [34] = target: Glutamate receptor ionotropic, NMDA 1 (Rattus norvegicus) (UniProt P35439); test: Activity against NMDAGLSI/R in the Eurofins Panlabs screen (BI) by Radioactive Assay; settings: Compound concentration 10.0 uM
# [35] = target: Protein kinase C beta type (Homo sapiens) (UniProt P05771); test: Inhibitor of PKCBETA in the Eurofins Panlabs screen (BI) by Radioactive Assay; settings: Compound concentration 10.0 uM
# [36] = target: Progesterone receptor (Bos taurus) (UniProt Q690N0); test: Activity against PROGEST/BO in the Eurofins Panlabs screen (BI) by Radioactive Assay; settings: Compound concentration 10.0 uM
# [37] = organism: Cavia porcellus; test: Activity against SIGMA/NS/GP in the Eurofins Panlabs screen (BI) by Radioactive Assay; settings: Compound concentration 10.0 uM
# [38] = target: Neuropeptide Y receptor type 2 (Oryctolagus cuniculus) (UniProt G1TSD5); test: Activity against Y2/RB in the Eurofins Panlabs screen (BI) by Radioactive Assay; settings: Compound concentration 10.0 uM
# Gamma-aminobutyric acid receptor subunit alpha-1 (Rattus norvegicus), sequence (P62813 whole entry): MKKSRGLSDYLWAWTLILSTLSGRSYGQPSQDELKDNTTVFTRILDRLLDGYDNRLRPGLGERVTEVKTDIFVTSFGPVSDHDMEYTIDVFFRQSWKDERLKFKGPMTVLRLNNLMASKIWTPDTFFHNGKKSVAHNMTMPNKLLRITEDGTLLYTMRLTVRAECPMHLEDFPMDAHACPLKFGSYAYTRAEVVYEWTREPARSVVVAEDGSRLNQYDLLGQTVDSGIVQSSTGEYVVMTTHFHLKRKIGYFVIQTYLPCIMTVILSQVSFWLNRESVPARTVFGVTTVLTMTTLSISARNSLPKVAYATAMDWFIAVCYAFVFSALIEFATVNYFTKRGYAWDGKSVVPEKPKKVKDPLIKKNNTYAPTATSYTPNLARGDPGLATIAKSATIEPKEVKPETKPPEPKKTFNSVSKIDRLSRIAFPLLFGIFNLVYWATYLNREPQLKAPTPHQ
# Progesterone receptor (Bos taurus), sequence (Q690N0 as listed by the source): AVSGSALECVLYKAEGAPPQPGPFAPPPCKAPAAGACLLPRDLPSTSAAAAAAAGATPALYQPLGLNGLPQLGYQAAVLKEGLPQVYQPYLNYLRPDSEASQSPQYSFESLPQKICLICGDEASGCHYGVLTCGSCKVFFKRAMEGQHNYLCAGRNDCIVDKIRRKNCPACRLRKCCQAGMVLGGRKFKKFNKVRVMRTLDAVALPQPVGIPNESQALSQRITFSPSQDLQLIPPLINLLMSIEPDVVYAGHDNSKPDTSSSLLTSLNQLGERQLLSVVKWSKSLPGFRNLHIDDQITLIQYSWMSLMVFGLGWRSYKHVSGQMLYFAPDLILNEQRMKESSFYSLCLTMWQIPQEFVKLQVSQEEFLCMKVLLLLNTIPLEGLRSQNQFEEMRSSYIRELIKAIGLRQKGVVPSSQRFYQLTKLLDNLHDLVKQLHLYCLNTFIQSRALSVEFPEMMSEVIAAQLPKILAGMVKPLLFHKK
# Beta-1 adrenergic receptor (Homo sapiens), sequence (P08588 whole entry, looked up): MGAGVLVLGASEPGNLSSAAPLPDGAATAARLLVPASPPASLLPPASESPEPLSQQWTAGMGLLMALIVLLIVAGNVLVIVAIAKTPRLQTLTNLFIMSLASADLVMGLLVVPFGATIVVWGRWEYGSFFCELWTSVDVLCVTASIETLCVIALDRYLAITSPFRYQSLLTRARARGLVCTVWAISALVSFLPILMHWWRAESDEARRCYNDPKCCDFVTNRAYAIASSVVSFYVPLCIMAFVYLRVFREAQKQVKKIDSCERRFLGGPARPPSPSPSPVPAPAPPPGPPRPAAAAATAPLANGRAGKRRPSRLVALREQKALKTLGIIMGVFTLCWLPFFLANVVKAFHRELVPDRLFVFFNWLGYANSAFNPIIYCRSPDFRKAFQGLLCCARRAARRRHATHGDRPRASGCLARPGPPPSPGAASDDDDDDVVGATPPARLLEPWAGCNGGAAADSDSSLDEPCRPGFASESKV
# Carbonic anhydrase 6 (Homo sapiens), sequence (P23280 whole entry): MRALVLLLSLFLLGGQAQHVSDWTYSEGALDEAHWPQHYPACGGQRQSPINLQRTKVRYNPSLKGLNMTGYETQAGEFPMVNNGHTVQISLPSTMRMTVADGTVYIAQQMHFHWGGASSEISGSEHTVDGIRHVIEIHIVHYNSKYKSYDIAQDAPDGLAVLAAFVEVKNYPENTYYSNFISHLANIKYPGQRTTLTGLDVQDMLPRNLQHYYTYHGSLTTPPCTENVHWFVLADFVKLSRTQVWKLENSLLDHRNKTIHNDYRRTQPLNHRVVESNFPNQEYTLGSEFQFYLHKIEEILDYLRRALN
# Angiotensin-converting enzyme (Homo sapiens), sequence (P12821 whole entry): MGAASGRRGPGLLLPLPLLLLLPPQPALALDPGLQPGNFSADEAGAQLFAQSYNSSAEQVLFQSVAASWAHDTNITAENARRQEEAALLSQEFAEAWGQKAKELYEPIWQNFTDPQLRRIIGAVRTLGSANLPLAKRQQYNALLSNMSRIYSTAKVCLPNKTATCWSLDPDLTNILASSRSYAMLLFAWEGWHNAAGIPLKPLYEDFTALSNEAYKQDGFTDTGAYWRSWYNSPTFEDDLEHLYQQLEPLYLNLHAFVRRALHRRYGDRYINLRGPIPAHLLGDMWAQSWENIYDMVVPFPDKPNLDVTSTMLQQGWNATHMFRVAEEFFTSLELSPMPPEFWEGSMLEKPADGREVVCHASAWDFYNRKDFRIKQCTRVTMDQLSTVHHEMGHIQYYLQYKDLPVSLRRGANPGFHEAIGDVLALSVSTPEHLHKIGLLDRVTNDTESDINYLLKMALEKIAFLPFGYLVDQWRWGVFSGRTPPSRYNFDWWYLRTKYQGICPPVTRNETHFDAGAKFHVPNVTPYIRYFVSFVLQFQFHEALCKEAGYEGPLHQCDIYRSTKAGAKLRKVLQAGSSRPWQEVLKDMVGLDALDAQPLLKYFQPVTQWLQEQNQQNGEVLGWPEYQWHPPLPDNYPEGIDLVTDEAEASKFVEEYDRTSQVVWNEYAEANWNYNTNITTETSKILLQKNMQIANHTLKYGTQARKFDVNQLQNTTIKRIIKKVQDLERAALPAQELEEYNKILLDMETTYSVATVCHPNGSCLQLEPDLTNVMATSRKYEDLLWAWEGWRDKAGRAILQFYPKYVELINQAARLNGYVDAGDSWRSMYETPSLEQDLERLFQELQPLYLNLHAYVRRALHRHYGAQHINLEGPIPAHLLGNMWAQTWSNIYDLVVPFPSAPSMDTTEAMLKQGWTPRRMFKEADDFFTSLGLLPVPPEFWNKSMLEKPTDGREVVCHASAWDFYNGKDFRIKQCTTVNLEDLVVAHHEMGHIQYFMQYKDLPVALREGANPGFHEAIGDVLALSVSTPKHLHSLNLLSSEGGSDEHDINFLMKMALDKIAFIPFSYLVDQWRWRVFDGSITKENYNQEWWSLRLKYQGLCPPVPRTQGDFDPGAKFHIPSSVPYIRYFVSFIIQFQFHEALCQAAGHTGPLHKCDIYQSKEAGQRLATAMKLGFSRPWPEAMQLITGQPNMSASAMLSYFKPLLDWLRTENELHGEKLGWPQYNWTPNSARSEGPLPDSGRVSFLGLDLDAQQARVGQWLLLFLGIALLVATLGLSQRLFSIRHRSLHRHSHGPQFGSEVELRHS
# Endothelin receptor type B (Rattus norvegicus), sequence (P21451 whole entry): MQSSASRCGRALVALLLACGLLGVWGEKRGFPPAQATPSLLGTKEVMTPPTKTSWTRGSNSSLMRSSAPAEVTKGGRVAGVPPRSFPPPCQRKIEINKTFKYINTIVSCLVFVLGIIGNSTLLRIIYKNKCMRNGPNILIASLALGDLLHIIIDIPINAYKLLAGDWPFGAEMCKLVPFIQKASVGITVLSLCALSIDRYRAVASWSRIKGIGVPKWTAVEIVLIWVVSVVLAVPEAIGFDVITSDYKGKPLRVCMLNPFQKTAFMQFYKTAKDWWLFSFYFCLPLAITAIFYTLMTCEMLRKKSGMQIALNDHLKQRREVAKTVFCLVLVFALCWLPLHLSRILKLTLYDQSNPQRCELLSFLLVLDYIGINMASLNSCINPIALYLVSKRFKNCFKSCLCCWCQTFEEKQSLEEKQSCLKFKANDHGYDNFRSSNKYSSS
# Endothelin-1 receptor (Homo sapiens), sequence (P25101 whole entry): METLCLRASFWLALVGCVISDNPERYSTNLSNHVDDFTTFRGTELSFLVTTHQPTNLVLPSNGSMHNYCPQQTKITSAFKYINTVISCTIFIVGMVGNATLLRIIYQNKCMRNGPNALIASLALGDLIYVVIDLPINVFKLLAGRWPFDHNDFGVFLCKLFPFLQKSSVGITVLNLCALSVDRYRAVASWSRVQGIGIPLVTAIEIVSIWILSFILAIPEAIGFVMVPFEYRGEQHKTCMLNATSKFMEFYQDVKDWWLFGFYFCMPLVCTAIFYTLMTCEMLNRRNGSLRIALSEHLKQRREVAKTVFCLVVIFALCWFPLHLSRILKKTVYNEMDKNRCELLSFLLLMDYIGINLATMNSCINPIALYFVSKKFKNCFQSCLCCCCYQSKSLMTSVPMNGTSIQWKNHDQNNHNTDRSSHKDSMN
# Muscarinic acetylcholine receptor (Oryctolagus cuniculus), sequence (A0A5F9DUN4 as listed by the source): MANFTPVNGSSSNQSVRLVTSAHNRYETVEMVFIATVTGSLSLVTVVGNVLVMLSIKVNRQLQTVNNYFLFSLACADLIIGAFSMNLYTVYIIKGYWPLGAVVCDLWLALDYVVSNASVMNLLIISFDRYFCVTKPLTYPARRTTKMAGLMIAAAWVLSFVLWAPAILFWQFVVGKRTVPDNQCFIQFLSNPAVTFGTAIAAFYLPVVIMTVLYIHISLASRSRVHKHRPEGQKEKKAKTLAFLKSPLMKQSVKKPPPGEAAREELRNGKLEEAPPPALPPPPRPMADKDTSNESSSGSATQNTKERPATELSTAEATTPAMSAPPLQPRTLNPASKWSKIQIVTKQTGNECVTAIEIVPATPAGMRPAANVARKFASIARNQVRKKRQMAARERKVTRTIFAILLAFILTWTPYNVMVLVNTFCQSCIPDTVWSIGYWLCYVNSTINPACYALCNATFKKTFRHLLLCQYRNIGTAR
# Neuropeptide Y receptor type 5, sequence (Q15761 whole entry): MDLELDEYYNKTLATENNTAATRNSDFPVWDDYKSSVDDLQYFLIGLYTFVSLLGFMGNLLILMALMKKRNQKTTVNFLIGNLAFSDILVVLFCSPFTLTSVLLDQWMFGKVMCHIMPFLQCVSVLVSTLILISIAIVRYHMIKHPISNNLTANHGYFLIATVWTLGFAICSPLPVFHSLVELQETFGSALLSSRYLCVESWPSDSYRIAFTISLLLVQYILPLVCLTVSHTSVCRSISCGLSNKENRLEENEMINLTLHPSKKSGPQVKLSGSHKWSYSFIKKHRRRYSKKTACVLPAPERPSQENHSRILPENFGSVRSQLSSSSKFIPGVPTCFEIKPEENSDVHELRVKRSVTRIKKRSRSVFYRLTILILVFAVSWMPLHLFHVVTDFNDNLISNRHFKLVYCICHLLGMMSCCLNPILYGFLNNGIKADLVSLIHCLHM
# Leukotriene C4 synthase (Cavia porcellus), sequence (A6XA80 whole entry): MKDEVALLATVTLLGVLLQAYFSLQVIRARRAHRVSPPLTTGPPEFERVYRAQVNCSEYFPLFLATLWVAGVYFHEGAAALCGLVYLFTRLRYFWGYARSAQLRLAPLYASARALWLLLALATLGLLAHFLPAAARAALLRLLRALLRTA
compound,measurement,setting,value
N=C(N)NCCC[C@@H](NC(=O)C(c1ccccc1)c1ccccc1)C(=O)NCc1ccc(CNC(N)=O)cc1,residual activity,[1],103%
same,residual activity,[2],102%
same,residual activity,[3],106%
same,residual activity,[4],108%
same,residual activity,[5],79%
same,residual activity,[6],112%
same,residual activity,[7],98%
same,residual activity,[8],110%
same,residual activity,[9],84%
same,residual activity,[10],84%
same,residual activity,[11],29%
same,IC50,[12],> 10 µM (not active)
same,IC50,[13],> 10 µM (not active)
same,residual activity,[14],118%
same,residual activity,[15],90%
same,residual activity,[16],114%
same,residual activity,[17],82%
same,residual activity,[18],110%
same,residual activity,[19],96%
same,residual activity,[20],92%
same,residual activity,[21],95%
same,residual activity,[22],80%
same,residual activity,[23],98%
same,residual activity,[24],104%
same,residual activity,[25],98%
same,residual activity,[26],87%
same,residual activity,[27],98%
same,residual activity,[28],86%
same,residual activity,[29],97%
same,residual activity,[30],110%
same,residual activity,[31],87%
same,residual activity,[32],98%
same,residual activity,[33],102%
same,residual activity,[34],87%
same,residual activity,[35],89%
same,residual activity,[36],114%
same,residual activity,[37],100%
same,residual activity,[38],62%
